Laboratory results as given in BindingDB's records for patent US10053455 (Ab Science, 2018).

Target: Tyrosine-protein kinase SYK (Homo sapiens, UniProt P43405)
Assay: In Vitro SYK Inhibition Assay
Settings: pH 7.8; 25 °C
Description: SYK kinase was purified as a full length protein in a baculovirus system near homogeneity. All kinase assays were performed with the Kinase TK (tyrosine kinase) HTRF (Homogeneous Time Resolved Fluorescence) assay developed by Cisbio international. […] Reactions were initiated upon introduction of the enzyme and terminated with the addition of one reaction volume (25 μl) of HTRF detection buffer. Plates were incubated for one hour at room temperature and the time resolved Fluorescence resonance energy transfer signal was measured in a Pherastar FS microplate reader (BMG Labtech). All data were the average of triplicate results with a standard deviation <10%.

Work on `O=C1NCCN(c2ncc(-c3cccc(Nc4nccc(-c5cccnc5)n4)c3)o2)C12CC2` [US10053455, 019] yielded an IC50 of under 500 nM.
